Patent US9598362B2, “Benzidine derivative, method for preparing same, and pharmaceutical composition containing benzidine derivative for treating liver disease caused by hepatitis C virus” (priority 2013, dated 2017)

These compounds were tested on HCV (JFH-5aFlucm4) (assay: Evaluation of anti-HCV activity 1: huh7.5.1 cells inoculated with HCV carrying renilla luciferase reporter). Conditions: Hepatitis C virus, Huh-7.5.1, 72 h, read-out: EC50 grade.
Assay type: cell-based
Protocol: To evaluate the anti-HCV activity of the compound represented by formula 1 of the present invention, the following experiment was performed.
The hepatoma cell line huh7.5.1 was distributed in a 12-well cell culture plate at the density of 50,000 cells/well. The cells were cultured in DMEM (Dulbecco's Modified Eagle's Medium 12800-017, GIBCO Co.) supplemented with 10% (v/v) FBS (Fetal Bovine Serum SH30406.02, Hyclone Co.) and 1% (v/v) antibiotics (penicillin/streptomycin solution SV30010, Hyclone Co.) in a 37° C. 6.0% CO2 incubator (CO2 Incubator 311, Forma Scientific Co, Lnc. USA) for 24 hours to lead cell attachment on the plate. Then, the cells were inoculated with HCV (JFH-5aFlucm4, PLoS One. 2011; 6(8):e228808.) having renilla luciferase gene as a reporter for 3 hours. Upon completion of the virus inoculation, the cell culture medium was replaced with the medium containing the compounds prepared in Examples 1˜24 at the concentration of 1 μM each. The cells were cultured in a 37° C. 6.0% CO2 incubator (CO2 Incubator 311, Forma Scientific Co, Lnc. USA) for 3 days. Three days after the infection, the cell culture medium was collected to measure the cytotoxicity in the following Experimental Example 3. The cells attached on the plate were washed with PBS (phosphate buffered saline) and then lysed by treating 100 μl of 1× passive lysis buffer (Promega, E1941). The cell lysate (10 μl) was added to renilla luciferase assay reagent (50 μl) in renilla luciferase assay system (Promega, E2820), followed by measurement of luminescence for 10 seconds using the luciferase measure program with Luminometer (GLOMAX 20/20 Luminometer, Promega). At this time, the measurement of luminescence was performed in triplicate with the groups treated with the compounds of Examples 1˜24 and the non-treated control group. The mean value was calculated and compared. The luminescence of each compound over the concentration was converted into EC50 (half maximal effective concentration) by using sigma plot program, and the results are shown in Table 2.
With COC(=O)N[C@@H](C(=O)N1CCC[C@H]1C(=O)Nc1ccc(-c2ccc(NC(=O)[C@@H]3CCCN3C(=O)[C@H](NC(=O)OC)C(C)C)cc2)cc1)C(C)C [Example 13, dimethyl(2R,2′R)-1,1′-((2S,2′S)-2,2′-(biphenyl-4,4′-diylbis(azandiyl))bis(oxomethylene)bis(pyrrolidine-2,1-diyl))bis(3-methyl-1-oxobutane-2,1-diyl)dicarbamate] the EC50 was > 100 nM. In the case of O=C(Nc1ccc(-c2ccc(NC(=O)[C@@H]3CCCN3C(=O)[C@H]3CCCO3)cc2)cc1)[C@@H]1CCCN1C(=O)[C@H]1CCCO1 [Example 17], the EC50 is reported as > 100 nM. COC(=O)N[C@@H](C)C(=O)N1CCC[C@H]1C(=O)Nc1ccc(-c2ccc(NC(=O)[C@@H]3CCCN3C(=O)[C@H](C)NC(=O)OC)cc2)cc1 [Example 18, dimethyl(2S,2′S)-1,1′-((2S,2′R)-2,2′-(biphenyl-4,4′-diylbis(azandiyl))bis(oxomethylene)bis(pyrrolidine-2,1-diyl))bis(1-oxopropane-2,1-diyl)dicarbamate] was tested, and the EC50 was > 100 nM. Work on COC(=O)N[C@H](C(=O)N1CCC[C@H]1C(=O)Nc1ccc(-c2ccc(NC(=O)[C@@H]3CCCN3C(=O)[C@@H](NC(=O)OC)C(C)(C)C)cc2)cc1)C(C)(C)C [Example 19, dimethyl(2S,2′S)-1,1′-((2S,2′R)-2,2′-(biphenyl-4,4′-diylbis(azandiyl))bis(oxomethylene)bis(pyrrolidine-2,1-diyl))bis(3,3-dimethyl-1-oxobutane-2,1-diyl)dicarbamate] yielded an EC50 of 1 to 100 nM. COC(=O)N[C@H](C(=O)N1CCC[C@H]1C(=O)Nc1ccc(-c2ccc(NC(=O)[C@@H]3CCCN3C(=O)[C@@H](NC(=O)OC)C(C)C)cc2)cc1)C(C)C [Example 20, dimethyl(2S,2′S)-1,1′-((2S,2′R)-2,2′-(biphenyl-4,4′-diylbis(azandiyl))bis(oxomethylene)bis(pyrrolidine-2,1-diyl))bis(3-methyl-1-oxobutane-2,1-diyl)dicarbamate] was tested, and the EC50 was > 100 nM.
